`Clc1cccc2c(CN3CC=C(c4ccc5[nH]ccc5c4)CC3)n[nH]c12` returned a melting point of 164 to 167 °C.
To `CS(=O)(=O)c1ccc(-n2cnc3ccc(-c4nnc(C5CC5)o4)cc32)cc1` belongs 215 to 216 °C; to `O=C(C=Cc1cccnc1)NCCCCC1CCN(C2c3ccccc3CSc3ccccc32)CC1` (centres undefined), 89 to 91 °C.
Consider `Cc1ccccc1CCNC(=O)c1ccc(F)cc1`, for which the melting point is 82 to 83 °C.
With `Cc1cc2ccccc2n1Nc1ccncc1` the figure was 75 to 78 °C; with `ClC1=Nc2ccccc2Cn2cccc21`, 102 to 104 °C.
`CC(C)C1(C)NC(c2ncccc2C#N)=NC1=O` (centres undefined) yielded a melting point of 144 to 148 °C.
With `COC(=O)C(O)c1ccc(Cl)cc1` (centres undefined) the figure was 55 °C.
With `Oc1ccc2oc(-c3ccc(O)c4ccccc34)nc2c1` the figure was 182 to 184 °C.
`COc1cc2c(cc1Nc1ncc(Cl)c(NC3(C(=O)OC(C)C)CCCC3)n1)CCN(CC(=O)N(C)C)CC2` had a melting point of 65 to 70 °C.
Consider `CCC(Oc1ccc([N+](=O)[O-])cc1)C(=O)NCc1ccccc1OC` (centres undefined), for which the melting point fell in the range of 109 to 112 °C.
The compound `CNC(=O)[C@@H]1C[C@@H](OC)CN1S(=O)(=O)c1ccc(Cl)c(CBr)c1Cl` returned a melting point of 64 °C.
`O=C(CCCC1CCN(Cc2ccccc2)CC1)c1ccc(N2CCCC2)cc1` yielded a melting point of 115 to 116 °C.
The compound `O=C1NCCN1c1ccc(S(=O)(=O)Nc2ccc(I)cc2)cc1` had a melting point of 266 to 267 °C.
Consider `Cc1cc(C#N)cc(C(=O)NC(C)C2CC2)c1NC(=O)c1cc(Br)nn1-c1ncccc1Cl` (centres undefined), for which the melting point was in the range of 244 to 245 °C.
Consider `COc1cccc2c(=O)c(C(N)=O)coc12`, for which the melting point fell in the range of 229 to 231 °C.
For the compound `Cc1oc(-c2ccccc2)nc1COc1ccc(CCCO)cn1`, the melting point was 89 to 90 °C.
With `CCOC(=O)c1cc(NCc2ccccc2)c(Oc2ccccc2)c(S(=O)(=O)N(C)C)c1` the figure was 154 to 155 °C; with `Cc1c(C(=O)N[C@@H](Cc2ccc(OCc3ccoc3)cc2)C(=O)O)oc2cc(-c3ccc(Cl)cc3)ccc12`, 108 to 110 °C; with `Cc1ccc2c(c1)NC(=O)[C@H](N)C[C@@H]2C1CCCCC1` (relative stereo), 64 to 66 °C.
Consider `CCCn1cc(-c2c(-c3ccc(F)cc3)nn3ccncc23)ccc1=O`, for which the melting point is 183 to 184 °C.
On to `NC(=O)c1nn(C2OC(CO)C(O)C2O)nc1C(N)=O` (centres undefined), for which the melting point lay within 210 to 212 °C.
To `COc1ccc(OCC(O)CN2CCN(c3ccccc3C(=O)O)CC2)c(C(C)(C)C)c1` (centres undefined) belongs 171 to 172 °C.
`CCOC(=O)C1=C(CO)NC(C)=C(C(=O)OCc2ccccc2)C1c1ccccc1[N+](=O)[O-]` (centres undefined): the melting point lay in the range of 51 to 57 °C.
`Cc1oc(-c2ccccc2)nc1COc1ccc(CON=C(CC(N)=O)c2ccccc2)cc1`: the melting point lay in the range of 164 to 165 °C.
As for `COC(=O)c1csc2c(=O)cc(C(F)(F)F)oc12`, the melting point is 148 to 158 °C.
To `CC1SC(=O)NN=C1c1ccc2c(c1)C(=NNc1ccc(C(C)(C)C)cc1)C(=O)N2` (centres undefined) belongs 299 °C; to `C#CCOc1ccc(CCNC(=O)[C@@H](O)c2ccccc2)cc1OC`, 81 to 83 °C.
To `COc1ccc(C(=CCCC(=O)O)c2ccc(OC)cc2)cc1` belongs 113 to 114 °C; to `CC(C)(C)[Si](C)(C)N1C(=O)C[C@H]1CI`, 71 to 72 °C; to `CC(=O)N1CCc2ccc(C(=O)CCC(=O)N3CCC(c4ccc(Cl)cc4)CC3)cc2CC1`, 110 to 112 °C.
The compound `Cc1ccccc1C(=O)Nc1c(NC(=O)CCl)ccc2c1C(=O)c1ccccc1C2=O` returned a melting point of 179 to 180 °C.
With `CCCCCCNC(=O)OC1CCN(C(=O)Oc2ccc(Oc3ccc(C)cc3)cc2)CC1` the figure was 84 to 85 °C; with `CSC(=Nc1c(C(C)C)cc(Oc2ccc(Cl)cc2)nc1C(C)C)NC(C)(C)C`, 95 to 100 °C; with `CCCn1c(=O)c2[nH]c([C@H](C)c3ccccc3)nc2n(CCC)c1=O`, 136 to 137 °C.
With `COc1cc(C=CC(=O)Nc2c(OC)nc3c(C)cc(C)cc3c2-c2ccccc2Cl)cc(OC)c1OC(C)=O`, the melting point fell in the range of 230 to 231 °C.
The compound `CCOc1cc(Oc2ccc(C(F)(F)F)cn2)ccc1CCCO` gave a melting point of 50 to 51 °C.
With `Cc1cc(C#N)cc(CNc2c(NC(C)C(C)(C)C)c(=O)c2=O)c1` (centres undefined) the figure was 244 to 247 °C; with `CNC(=O)c1cccc(F)c1Nc1nc(Nc2ccc3c(c2)N(C(C)=O)CC(=O)NC3)ncc1Cl`, 179 to 185 °C; with `CCNc1nc(-c2ccccc2)c(-c2ccc(=O)n(C(C)C)n2)s1`, 167 to 169 °C.
With `CNc1nc(Nc2ccc(CNC(=O)OC(C)(C)C)cc2)ncc1[N+](=O)[O-]` the figure was 260 °C; with `CC(C)COc1ccccc1C1=NC(=O)C2=NC=NC2=N1`, 272 to 273 °C; with `O=C(C[C@@H](CCCC1CCCCC1)c1nc(CNC2CCCC2)co1)NO`, 124 to 127 °C.
In the case of `COc1cccc(OC)c1C(=O)Nc1cc(C(C)(C)C)ns1`, the melting point is 266 to 267 °C.
To `COC(=O)Cn1c(C(=O)Nc2nc(-c3cc(OC)c(C)cc3OC)c(CCC3CCCCC3)s2)cc2cc(OC)ccc21` belongs 173 to 175 °C.
`CCn1nc(-c2nc(C#N)c(NCc3ccc(OC)cc3)nc2-c2ccccc2)ccc1=O` returned a melting point of 166 to 168 °C.
With `CC(C)(C)OC(=O)Nc1cc(N2CCOC2=O)c(-c2ccc(F)cc2)cc1N`, the melting point was found to be 210 °C.
As for `CCOCn1c(-c2ccc(Cl)cc2)c(C#N)c(Sc2ccc(Cl)cc2)c1C(F)(F)F`, the melting point was in the range of 98 to 100 °C.
With `Cc1ccc(N2C(=O)c3ccccc3C2O)nn1` (centres undefined) the figure was 232 °C; with `CS(=O)(=O)Nc1cc2occ(N3CCCC3=O)c(=O)c2cc1Oc1ccccc1`, 192 to 193 °C.
On to `OC(CNCCCOCCCCCCc1ccccc1)c1ccc2c(n1)COC(c1ccccc1)O2` (centres undefined), for which the melting point was in the range of 64 to 68 °C.
As for `OCC1CC(n2c(SCc3ccccc3)nc3cc(Cl)c(Cl)cc32)C(O)C1O` (centres undefined), the melting point fell in the range of 160 to 162 °C.
With `NC(=O)c1coc(-c2cccc(C3=Nc4ccc(-n5cccc5)cc4NC(=O)C3)c2)n1` the figure was 232 to 234 °C; with `COC(=O)C(=O)c1ccc(OCCSc2ccccc2)cc1`, 49 to 51 °C.
Compound `CNC(=O)c1cccc(NC(=O)COc2cccc(Cl)c2Cl)c1` yielded a melting point of 192 to 193 °C.
With `CC(C)(C)OC(=O)N[C@@H](CC1CCCCC1)[C@@H]1C[C@@H](C2(O)CCCCC2)C(=O)O1` the figure was 133 to 134 °C; with `O=C(O)C1Cc2cc3c(-c4ccccc4F)noc3cc2O1` (centres undefined), 194 to 196 °C.
With `O=C(O)c1c2n(c3cc(N4CCNCC4)c(F)cc3c1=O)C(c1ccccc1)S2` (centres undefined) the figure was 200 to 205 °C; with `CC(=O)Nc1cc(Cl)ccc1CCOC(C)=O`, 129 °C; with `CCOC(=O)C(C(=O)Nc1ccc(OC)cc1)(c1ccccc1)c1ccccc1`, 89 to 91 °C.
With `CCOC(=O)C(NC(=O)C[N+](=O)[O-])C(=O)OCC` the figure was 118 to 121 °C; with `Nc1cc(Cl)nc(SC/C=C/C(=O)N2CCCCC2)n1`, 159 to 163 °C.
Regarding `Clc1cc(N2CCNCC2)nc(N2CCCC2)n1`, the melting point fell in the range of 89 to 100 °C.
`FC(F)(F)Oc1ccc(Nc2cc(-n3ccc(C(F)(F)F)n3)c3ccccc3n2)cc1` showed a melting point of 128 to 130 °C.
With `O=C(O)c1cc(=O)[nH]c2ccc(I)cc12` the figure was 361 to 363 °C.
For `C[C@@H](NC(=O)Nc1ccc(C(C)(C)C)cc1)c1ccc(NS(C)(=O)=O)c(C#C[Si](C)(C)C)c1`, the melting point lay within 118 to 120 °C.
To `COc1cc(OC)nc(NC(=O)NS(=O)(=O)c2ccccc2-c2nnn(C)n2)n1` belongs 214 to 222 °C; to `CCCC(=O)N(Cc1ccc(-c2ccccc2-c2nc(=O)o[nH]2)cc1)c1sc(C)cc1C(=O)OC`, 156 to 157 °C; to `CC(=O)C1=C(O)C(=C(C)Nc2cc(NC(=O)C(O)CO)cc(NC(=O)C(O)CO)c2)C(=O)OC1=O` (centres undefined), 231 °C.
With `CC(C)CC(NC(=O)OCc1ccccc1)C(=O)NC(Cc1cccc2ccccc12)C(=O)CSCc1ccco1` (centres undefined) the figure was 71 to 74 °C; with `FC(F)(F)c1cccc(-c2cc(Cl)n3nccc3n2)c1`, 137 to 139 °C.
To `O=C(CCc1ccccc1)NC(NC(=S)Nc1cccc([N+](=O)[O-])c1)C(Cl)(Cl)Cl` (centres undefined) belongs 171 to 173 °C; to `CC(C)(C)[Si](C)(C)O[C@H]1CCC[C@@]2(C)[C@H]1CC[C@@H]2[C@]1(C)CC(=O)CO1`, 52 °C.
On to `CCC(Oc1ccccc1)C(=O)OC1CC(O)C=C2C=CC(C)C(CCC3CC(O)CC(=O)O3)C21` (mixture of isomers), for which the melting point is 120 to 122 °C.
With `CCc1nc2c(O)c(CCC(O)c3ccccc3)c(C(=O)N(C)C)cc2n1C` (centres undefined) the figure was 121 to 124 °C.
`ClC(=NNc1cc(Cl)ccc1Cl)c1ccccc1` showed a melting point of 84.5 to 86 °C.
The compound `O=[N+]([O-])c1ccc(C2(Cn3cncn3)OCCO2)cc1` registered a melting point of 160 °C.
To `O=C(Nc1cccc2c1C(=O)c1c-2n[nH]c1-c1ccc(C(=O)N2CCC(N3CCCC3)CC2)s1)NN1CCOCC1` belongs 228 °C; to `O=C(O)c1cccc(NC(=O)C(CS)CCCc2ccccc2)c1` (centres undefined), 134 to 136 °C.
To `CC#CCOc1ccc(SC(C(=O)NO)c2ccccc2OC)cc1` (centres undefined) belongs 172 to 173 °C; to `O=C1N(C(c2ccccc2)c2ccccc2)c2cc(F)ccc2C1(O)c1cc2c(cc1O)OCC2` (centres undefined), 147 to 149 °C.
To `CC1(O)CC(=O)OC(C=Cc2ccccc2)C1(C)Br` (centres undefined) belongs 121 to 123 °C.
Compound `COC(=O)c1ccc(OC(F)(F)F)c(O)c1` yielded a melting point of 95 to 97 °C.
Consider `CNCc1coc(-c2cccc(C3=Nc4ccc(-n5cccc5)cc4NC(=O)C3)c2)n1`, for which the melting point was in the range of 182 to 183 °C.

What is called melting point is the temperature, or range, at which the solid turns liquid.

Values taken from a melting point compilation (Tetko et al.; mined from patent text by program, amines drawn as free bases though some values may be those of a salt).
